Measurements taken from patent publication US5326869A (priority 1991, dated 1994).
pIC50: −log10 of the molar value.

Molecular target: A2 Adenosine receptor (Rattus norvegicus, UniProt P30543)
Assay: biochemical
Method: The membrane preparation is obtained as follows: Frozen pellets of PC12 cells are washed twice with ice cold, buffered, physiological saline and the cells recovered by centrifugation (1500 G) at 3° C. The separated cells are then suspended in hypotonic solution (distilled water), allowed to stand on ice for 30 minutes and are then carefully homogenized using a standard high-speed homogeniser with periodic ice-cooling to obtain a fine suspension. […] The mixture is then incubated at 37° C. After 20 minutes, the reaction is terminated by dilution with ice-cold buffer and transfer onto ice. The material obtained containing the cell membranes is recovered by centrifugation and washed by resuspension in buffer and recentrifugation. The pellet produced is then resuspended in ice-cold buffer using a hand-driven homogenizer. The resultant membrane suspension is frozen and stored under liquid nitrogen until required.
After incubation, the samples are rapidly filtered over glass-fibre mats and the filter mats are washed to remove non-receptor-bound radioligand. Receptor-bound radioligand entrapped on the filter mats is then determined by liquid scintillation counting. […] The specific binding (defined as the difference between the total binding and the non-specific binding) in the presence of the particular test compound is determined and compared with the control value.

Sequence of A2 Adenosine receptor (P30543 whole entry): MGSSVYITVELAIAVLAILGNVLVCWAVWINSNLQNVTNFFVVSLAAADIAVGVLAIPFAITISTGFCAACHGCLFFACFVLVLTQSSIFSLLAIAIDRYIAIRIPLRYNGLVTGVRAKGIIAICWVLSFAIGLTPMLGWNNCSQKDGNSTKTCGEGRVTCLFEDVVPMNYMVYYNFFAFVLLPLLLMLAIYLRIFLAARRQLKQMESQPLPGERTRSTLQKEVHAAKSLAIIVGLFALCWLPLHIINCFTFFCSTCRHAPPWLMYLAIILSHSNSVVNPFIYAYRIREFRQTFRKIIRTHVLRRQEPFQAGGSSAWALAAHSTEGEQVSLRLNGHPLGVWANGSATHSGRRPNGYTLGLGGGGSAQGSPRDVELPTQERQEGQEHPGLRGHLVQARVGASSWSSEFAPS

With `Nc1nc(Oc2ccccc2)nc2nc(-c3ccco3)nn12` [Example 2, 7-amino-2-(2-furyl)-5-phenoxy[1,2,4]triazolo[1,5-a][1,3,5]triazine] as the compound, how does the pIC50 read?
The pIC50 was roughly 8.00.
